Tests used:
[1] = mn = molality of the nth substance listed, in mol/kg; conditions: 298.15 K, 101 kPa, Liquid
[2] = cn = amount concentration of the nth substance listed, in mol/dm3; conditions: 298.15 K, 101 kPa, Liquid

OC[C@H]1O[C@@](CO)(O[C@H]2O[C@H](CO)[C@@H](O)[C@H](O)[C@H]2O)[C@@H](O)[C@@H]1O [D-sucrose] + O
[1]
Conditions | mass density [kg/m3] | viscosity [mPa·s]
m1 = 0.2 | 1022.17 | 1.064
m1 = 0.4 | 1045.26 | 1.277
m1 = 0.6 | 1066.44 | 1.533
m1 = 0.8 | 1086.04 | 1.843
m1 = 1 | 1104.2 | 2.241
m1 = 1.2 | 1121.03 | 2.638

[Cl-].[Cl-].[Mg+2] [magnesium chloride] + O
[1]
Conditions | mass density [kg/m3]
m1 = 0.09998 | 1004.88
m1 = 0.2001 | 1012.54
m1 = 0.4002 | 1027.51
m1 = 0.5 | 1034.83

O=S(=O)([O-])[O-].[Na+].[Na+] [sodium sulfate] + O
[1]
Conditions | mass density [kg/m3]
m1 = 0.09205 | 1008.69
m1 = 0.2001 | 1021.99
m1 = 0.3 | 1034.01
m1 = 0.3999 | 1045.81
m1 = 0.5001 | 1057.44

[Cl-].[Na+] [sodium chloride] + O
[1]
Conditions | mass density [kg/m3]
m1 = 0.04999 | 999.11
m1 = 0.09999 | 1001.16
m1 = 0.1999 | 1005.2
m1 = 0.2999 | 1009.2
m1 = 0.4002 | 1013.17

O=S(=O)([O-])[O-].[Mg+2] [magnesium sulfate] + O
Conditions | mass density [kg/m3] | viscosity [mPa·s]
[1], m1 = 0.05 | 1003.14 | –
[1], m1 = 0.1 | 1009.13 | –
[1], m1 = 0.2 | 1020.83 | –
[1], m1 = 0.3 | 1032.43 | –
[1], m1 = 0.4 | 1043.79 | –
[1], m1 = 0.5 | 1055.11 | –
[2], c1 = 0.04787 | – | 0.9216
[2], c1 = 0.09971 | – | 0.9527
[2], c1 = 0.1994 | – | 1.016
[2], c1 = 0.2989 | – | 1.083
[2], c1 = 0.3983 | – | 1.155
[2], c1 = 0.4976 | – | 1.234

O=S(=O)([O-])[O-].[Cu+2] [copper sulfate] + O
Conditions | mass density [kg/m3] | viscosity [mPa·s]
[1], m1 = 0.05 | 1005.22 | –
[1], m1 = 0.1 | 1013.29 | –
[1], m1 = 0.2 | 1029.16 | –
[1], m1 = 0.3 | 1044.87 | –
[1], m1 = 0.4 | 1060.4 | –
[1], m1 = 0.5 | 1075.78 | –
[2], c1 = 0.04986 | – | 0.9222
[2], c1 = 0.09974 | – | 0.9516
[2], c1 = 0.1995 | – | 1.013
[2], c1 = 0.2991 | – | 1.083
[2], c1 = 0.3987 | – | 1.147
[2], c1 = 0.4981 | – | 1.223

[Cl][Cu][Cl] [copper chloride] + O
[1]
Conditions | mass density [kg/m3]
m1 = 0.0498 | 1003.12
m1 = 0.09962 | 1009.1
m1 = 0.1992 | 1020.92
m1 = 0.2988 | 1032.58
m1 = 0.498 | 1055.47

Reference: the NIST ThermoML archive (doi:10.1021/je700732u)
